{
  "source": "paper PMC4494927",
  "about": "“Discovery of a small molecule targeting SET-PP2A interaction to overcome BCR-ABLT315I mutation of chronic myeloid leukemia” (Oncotarget, 2015)",
  "key": {"[1]": {"test_system": "BCR-ABL", "test": "Western blot of BCR-ABL expression in K562 cells", "assay_type": "cell-based, human", "experimental": "Protein samples (40 μg) were resolved on SDS-PAGE gels, transferred onto PVDF membranes (Millipore) and incubated overnight with primary antibodies to β-tubulin, BCR-ABL, p-BCR-ABL, SET, PP2Ac and p-PP2Ac. The membranes were incubated with horseradish peroxidase (HRP)-conjugated secondary antibody for 1 h, and the bands were visualized using an ECL detection kit following the manufacturer's instructions. For immunoprecipitation, cells were lysed in 20 mM Tris-HCl (pH 7.0), 150 mM NaCl, 1 mM EDTA, 1 mM MgCl and 0.5% NP-40 supplemented with a cocktail of protease and phosphatase inhibitors (Roche). Lysates (200 μg) were incubated with primary antibodies (1 μg) against SET or PP2Ac at 4 °C for 10 h, protein A/G plus agarose beads were then added for immunoprecipitation overnight at 4 °C. After wash, the immunoprecipitated proteins were separated by SDS-PAGE and analyzed by Western blotting."}, "[2]": {"target": "T1, recombinant human SET protein (Homo sapiens, UniProt Q01105)", "T1 construct": "Genes encoding the full length of human SET (GenBank No.: AAA60318.1) was synthesized; made in house; host or cells: E. coli (pET-21a)", "T1 sequence (Q01105 1-277 isoform Q01105-2)": "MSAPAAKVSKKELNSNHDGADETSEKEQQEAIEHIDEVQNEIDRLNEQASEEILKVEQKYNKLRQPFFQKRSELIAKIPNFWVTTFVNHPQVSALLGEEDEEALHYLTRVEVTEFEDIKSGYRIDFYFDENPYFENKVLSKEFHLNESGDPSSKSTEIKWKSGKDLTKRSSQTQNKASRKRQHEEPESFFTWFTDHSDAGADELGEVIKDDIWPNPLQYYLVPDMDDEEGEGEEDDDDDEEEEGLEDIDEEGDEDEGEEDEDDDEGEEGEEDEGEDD", "test": "Microscale thermophoresis (MST) binding to NT647-labeled SET", "settings": "15 μM NT647-labeled SET, PBS pH 8.0, 25 °C", "experimental": "Thermophoresis analysis was performed during 30 s on a NanoTemper Monolith NT.115 instrument (20% LED, 40% MST power) at 25 °C."}, "[3]": {"test_system": "BaF3-p210^T315I cells", "test": "Survival study, intravenously injected tumor cells", "assay_type": "in vivo, BALB/c mice", "settings": "vehicle 25.5 days", "experimental": "In survival study, BaF3-p210^T315I cells were injected into the tail vein of BALB/c mice (100 μL of a 1 × 10^7 cells suspension in serum free medium). […] Moribund animals were sacrificed as per institutional and national guidelines. Survival data were analyzed by the Kaplan Meier method and compared using the log-rank test."}, "[4]": {"test_system": "BaF3-p210^T315I tumor xenografts", "test": "In vivo anti-tumor efficacy, subcutaneous xenograft", "design": "species or system BALB/c mice", "settings": "TGI1002 30, 45, 60 mg/kg; imatinib, ponatinib 10 mg/kg; i.p. daily", "experimental": "BABL/c male mice from SLRC Experimental Animal Center were bred under pathogen-free conditions and were used for experiments at 6-8 weeks of age. Animal experiments were performed according to institutional and national guidelines. BaF3-p210^T315I cells were implanted subcutaneously into the right flank of nude mice (200 μL of a 1 × 10^7cells suspension in serum free medium). When tumors became large enough for caliper measurement, tumor volumes were calculated as (length × width^2) × 0.5. […] At the end of the experiments, tumors were dissected and photographed, and wet weights of each tumor were measured."}, "[5]": {"test_system": "K562 cells", "test": "Cytotoxicity assay (CellTiter-Glo)", "assay_type": "cell-based, human", "experimental": "Twenty types of tumor cell lines were seeded at 4000 cells per well in 96-well plates. […] Cell viability was measured with the CellTiter-Glo Luminescent Cell Viability Assay (Promega) according to the manufacturer's instructions. Luminescence was measured using an EnVision Multilabel Plate Reader (Perkin-Elmer). The cytotoxicity of TGI1002 was expressed as the percentage of luminescence relative to that of untreated cells."}, "[6]": {"test_system": "PP2A", "test": "PP2Ac immunoprecipitation phosphatase assay in K562 cells", "assay_type": "cell-based, human", "experimental": "PP2A assay from whole cell lysates was carried out using commercial PP2Ac immunoprecipitation phosphatase assay kit (Millipore). Briefly, 200 μg protein lysates prepared as described above, 4 μg PP2Ac-specific antibody, and 40 μL protein A-agarose were added to TBS buffer (20 mM Tris-HCl, 150 mM NaCl, and 0.1% Tween 20) to a final volume of 500 μL and immunoprecipitation was carried out at 4 °C for 2 h. The immunoprecipitates were used in the phosphatase reaction following the manufacturer's protocol."}, "[7]": {"target": "T2, recombinant human SET protein in full length (human, UniProt Q01105-2 1-277, labeled with RED fluorescent dye NT-647-NHS)", "T2 construct": "human SET, full length, gene synthesized after GenBank AAA60318.1 and subcloned into pET-21a; also called SET oncoprotein; NT647-labeled SET protein", "T2 sequence (Q01105 other isoform, or with tags, fused parts or gaps)": "as the sequence (Q01105 1-277 isoform Q01105-2) above", "test": "MST; serial dilutions of the peptide (up to 2 mM) mixed with 15 μM NT647-labeled SET protein, 10 min at room temperature, 20 mM PBS pH 8.0, 25 °C, Monolith NT.115 (20% LED, 40% MST power)", "settings": "both partners purified"}},
  "data": [
    {"molecule": "CO[C@H]1/C=C\\C=C(/C)C(=O)NC2=CC(=O)C(NCCN(C)C)=C(C[C@@H](C)C[C@H](OC)[C@H](O)[C@@H](C)/C=C(\\C)[C@@H]1OC(N)=O)C2=O", "note": "[17-DMAG, reference compound]", "values": [
      {"measurement": "expression level of BCR-ABL", "setting": "[1]", "value": "significantly degraded"}
    ]},
    {"molecule": "Cc1ccc(NC(=O)c2ccc(CN3CCN(C)CC3)cc2)cc1Nc1nccc(-c2cccnc2)n1", "note": "[imatinib, reference compound]", "values": [
      {"measurement": "Kd value", "setting": "[2]", "value": "did not bind SET to give a meaningful Kd value"},
      {"measurement": "median survival", "setting": "[3]; 10 mg/kg i.p. once daily from day 5", "value": 25, "unit": "days"}
    ]},
    {"molecule": "Cc1ccc(C(=O)Nc2ccc(CN3CCN(C)CC3)c(C(F)(F)F)c2)cc1C#Cc1cnc2cccnn12", "note": "[ponatinib, reference compound]", "values": [
      {"measurement": "final tumor volume and weight compared to vehicle group", "setting": "[4]", "value": "markedly lower"},
      {"measurement": "median survival", "setting": "[3]", "value": 37, "unit": "days"}
    ]},
    {"molecule": "Cc1ccc(NC(=O)c2cccc(CN3CCN(CC(=O)O)CC3)c2)cc1Oc1nccc(-c2cccnc2)n1", "note": "[TGI1002-COOH]", "values": [
      {"measurement": "cytotoxicity compared to the parent compound TGI1002", "setting": "[5]", "value": "comparable cytotoxicity"}
    ]},
    {"molecule": "C=C1[C@@H](O)[C@@H]2O[C@]3(CC[C@H](/C=C/[C@@H](C)[C@@H]4CC(C)=C[C@@]5(O[C@H](C[C@@](C)(O)C(=O)O)CC[C@H]5O)O4)O3)CC[C@H]2O[C@@H]1[C@@H](O)C[C@H](C)[C@H]1O[C@@]2(CCCCO2)CC[C@H]1C", "note": "[okadaic acid, reference compound]", "values": [
      {"measurement": "PP2A activity compared to control", "setting": "[6]", "value": "decreased significantly"}
    ]},
    {"molecule": "Ac-LRVRLASHLRKLRKRLL-NH2 (source: synthetic peptide (ChinaPeptides Co., Ltd, > 95% purity))", "note": "[ApoE-mimetic peptide COG112]", "values": [
      {"measurement": "Kd", "setting": "[7]", "value": "4.4 ± 0.39", "unit": "µM"}
    ]}
  ]
}
